Laboratory results reported in ChEMBL document CHEMBL1201862, “PubChem BioAssay data set” (2004).
Each block holds one compound with its values, some of them ahead of it. Activity calls are given as the source filed them.

Tests used:
[1] = biological target: Serine/threonine-protein kinase N2 (Homo sapiens, UniProt Q16513); format: functional
[2] = biological target: Misshapen-like kinase 1 (Homo sapiens, UniProt Q8N4C8); format: functional;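 further: kinome panel screen with MINK as the panel member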
Chain of Misshapen-like kinase 1 (Q8N4C8 whole entry, the tested form may be a part): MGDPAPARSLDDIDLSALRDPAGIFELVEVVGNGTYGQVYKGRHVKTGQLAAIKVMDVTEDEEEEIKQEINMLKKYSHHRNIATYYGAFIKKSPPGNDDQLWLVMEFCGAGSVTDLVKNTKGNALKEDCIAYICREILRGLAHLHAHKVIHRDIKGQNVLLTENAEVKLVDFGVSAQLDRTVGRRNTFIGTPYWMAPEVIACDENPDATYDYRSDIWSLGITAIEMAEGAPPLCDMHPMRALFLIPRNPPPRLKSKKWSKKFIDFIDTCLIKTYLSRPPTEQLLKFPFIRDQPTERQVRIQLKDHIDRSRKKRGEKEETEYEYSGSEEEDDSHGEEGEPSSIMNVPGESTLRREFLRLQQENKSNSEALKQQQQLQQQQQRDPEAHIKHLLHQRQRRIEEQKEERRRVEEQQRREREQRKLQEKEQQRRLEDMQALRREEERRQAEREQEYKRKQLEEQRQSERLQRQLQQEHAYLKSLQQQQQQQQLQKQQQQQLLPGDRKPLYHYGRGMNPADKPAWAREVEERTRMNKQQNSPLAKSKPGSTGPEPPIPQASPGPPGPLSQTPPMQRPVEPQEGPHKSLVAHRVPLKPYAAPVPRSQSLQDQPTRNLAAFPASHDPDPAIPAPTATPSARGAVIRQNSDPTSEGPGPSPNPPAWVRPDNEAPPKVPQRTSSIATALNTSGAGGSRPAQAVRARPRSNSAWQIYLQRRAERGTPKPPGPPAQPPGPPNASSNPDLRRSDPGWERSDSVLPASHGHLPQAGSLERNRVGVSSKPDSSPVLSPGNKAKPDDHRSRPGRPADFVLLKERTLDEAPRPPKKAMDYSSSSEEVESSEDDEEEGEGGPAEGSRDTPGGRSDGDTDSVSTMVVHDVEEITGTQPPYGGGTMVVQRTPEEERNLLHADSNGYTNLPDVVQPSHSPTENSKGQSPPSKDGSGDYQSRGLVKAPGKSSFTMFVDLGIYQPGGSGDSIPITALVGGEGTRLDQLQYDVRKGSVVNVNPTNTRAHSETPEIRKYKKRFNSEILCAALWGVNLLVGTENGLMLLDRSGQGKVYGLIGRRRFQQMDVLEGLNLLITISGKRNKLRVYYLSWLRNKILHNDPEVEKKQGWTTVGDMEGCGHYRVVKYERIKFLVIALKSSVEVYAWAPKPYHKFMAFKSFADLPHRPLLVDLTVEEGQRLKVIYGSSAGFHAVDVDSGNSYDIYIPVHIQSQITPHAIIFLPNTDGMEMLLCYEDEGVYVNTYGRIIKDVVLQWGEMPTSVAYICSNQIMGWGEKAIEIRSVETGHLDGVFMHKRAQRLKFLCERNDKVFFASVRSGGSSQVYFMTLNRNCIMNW

[3] = off-target signal loss in HeLa-CEM21 co-culture – HeLa F-luc CTL cells, cherry-picked, counter-screen for HIV-1 Env fusion inhibitor project, dose response (AID 652040); format: functional, cell-based;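 further: potency for signal decrease marking cytotoxic or nonspecific inhibition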
[4] = viability loss in HeLa cells – cytotoxicity control for MgcRacGAP inhibitor project, dose response (AID 624300); format: functional
[5] = tested on: BJ; test: BJ-TERT fibroblast viability loss – cell-based, RAS-independent, luminescence, dose response (AID 1933); format: functional; conditions: Homo sapiens
[6] = biological target: Intestinal-type alkaline phosphatase (Mus musculus, UniProt P24822); test: PubChem AID 488874; format: functional
Chain of Intestinal-type alkaline phosphatase (P24822 whole entry): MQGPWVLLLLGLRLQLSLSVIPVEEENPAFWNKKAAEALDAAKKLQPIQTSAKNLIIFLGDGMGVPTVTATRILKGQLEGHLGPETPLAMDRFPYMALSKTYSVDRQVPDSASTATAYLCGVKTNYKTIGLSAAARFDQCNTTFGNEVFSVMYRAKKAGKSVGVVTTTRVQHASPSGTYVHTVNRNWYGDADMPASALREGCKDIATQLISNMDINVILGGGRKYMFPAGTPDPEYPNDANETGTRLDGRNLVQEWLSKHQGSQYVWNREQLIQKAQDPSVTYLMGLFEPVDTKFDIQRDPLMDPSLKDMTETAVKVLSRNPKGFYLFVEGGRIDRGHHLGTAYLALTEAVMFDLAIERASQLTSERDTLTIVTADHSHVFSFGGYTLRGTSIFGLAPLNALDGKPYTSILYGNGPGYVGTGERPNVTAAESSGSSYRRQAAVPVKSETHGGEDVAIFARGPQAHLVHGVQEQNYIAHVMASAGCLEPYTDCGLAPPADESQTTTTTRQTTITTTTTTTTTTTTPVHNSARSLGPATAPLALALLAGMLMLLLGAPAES

[7] = biological target: T1, Lysine-specific demethylase 4C (Homo sapiens, UniProt Q9H3R0); test: inhibition of JMJD2C H3K9me3 demethylation – biochemical, DELFIA europium, cherry-picked samples, dose response (AID 488835); format: functional
T1 sequence (Q9H3R0 whole entry): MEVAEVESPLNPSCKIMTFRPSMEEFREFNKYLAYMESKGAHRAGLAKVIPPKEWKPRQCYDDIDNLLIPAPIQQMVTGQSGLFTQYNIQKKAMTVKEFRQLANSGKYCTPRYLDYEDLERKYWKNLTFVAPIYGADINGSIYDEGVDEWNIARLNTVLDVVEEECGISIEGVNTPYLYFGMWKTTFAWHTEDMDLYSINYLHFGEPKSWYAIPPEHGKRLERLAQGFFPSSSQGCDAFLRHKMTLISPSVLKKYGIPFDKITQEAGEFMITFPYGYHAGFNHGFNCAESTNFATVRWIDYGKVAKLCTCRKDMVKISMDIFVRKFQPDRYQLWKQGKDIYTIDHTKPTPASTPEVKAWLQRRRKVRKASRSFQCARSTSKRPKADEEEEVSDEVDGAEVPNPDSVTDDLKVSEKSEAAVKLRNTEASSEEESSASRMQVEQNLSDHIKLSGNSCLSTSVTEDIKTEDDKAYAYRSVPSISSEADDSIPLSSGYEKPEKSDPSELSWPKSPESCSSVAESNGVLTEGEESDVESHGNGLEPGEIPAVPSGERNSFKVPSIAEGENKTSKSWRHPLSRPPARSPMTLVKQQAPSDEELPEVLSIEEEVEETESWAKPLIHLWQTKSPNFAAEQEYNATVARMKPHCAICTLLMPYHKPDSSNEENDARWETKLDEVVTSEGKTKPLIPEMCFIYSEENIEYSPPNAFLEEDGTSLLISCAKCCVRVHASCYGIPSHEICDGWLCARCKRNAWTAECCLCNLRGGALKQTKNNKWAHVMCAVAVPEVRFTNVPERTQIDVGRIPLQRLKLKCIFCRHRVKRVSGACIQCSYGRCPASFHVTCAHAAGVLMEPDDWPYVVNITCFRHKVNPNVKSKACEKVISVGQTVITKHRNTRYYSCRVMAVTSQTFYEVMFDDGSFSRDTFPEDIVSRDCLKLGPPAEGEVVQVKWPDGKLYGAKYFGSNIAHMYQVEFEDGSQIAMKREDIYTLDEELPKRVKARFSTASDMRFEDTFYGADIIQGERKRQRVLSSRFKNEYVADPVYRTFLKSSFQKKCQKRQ

[8] = biological target: SUMO-activating enzyme (Homo sapiens, UniProt Q9UBT2); test: blockers of UBC9-mediated SUMO conjugation – biochemical, AlphaScreen, SUMOylation inhibitor project, confirmation (AID 2018); format: functional
Chain of SUMO-activating enzyme (Q9UBE0 whole entry): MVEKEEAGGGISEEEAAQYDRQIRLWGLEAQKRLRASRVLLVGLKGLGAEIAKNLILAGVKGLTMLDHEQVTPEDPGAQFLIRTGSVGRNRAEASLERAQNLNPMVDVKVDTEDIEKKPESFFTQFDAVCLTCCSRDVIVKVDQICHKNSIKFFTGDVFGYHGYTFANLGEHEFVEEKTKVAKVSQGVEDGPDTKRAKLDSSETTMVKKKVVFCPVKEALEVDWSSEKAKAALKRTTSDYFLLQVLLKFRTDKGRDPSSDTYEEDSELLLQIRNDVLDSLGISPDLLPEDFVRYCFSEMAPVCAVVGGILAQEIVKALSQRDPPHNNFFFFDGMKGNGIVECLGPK
Chain of SUMO-activating enzyme (Q9UBT2 whole entry): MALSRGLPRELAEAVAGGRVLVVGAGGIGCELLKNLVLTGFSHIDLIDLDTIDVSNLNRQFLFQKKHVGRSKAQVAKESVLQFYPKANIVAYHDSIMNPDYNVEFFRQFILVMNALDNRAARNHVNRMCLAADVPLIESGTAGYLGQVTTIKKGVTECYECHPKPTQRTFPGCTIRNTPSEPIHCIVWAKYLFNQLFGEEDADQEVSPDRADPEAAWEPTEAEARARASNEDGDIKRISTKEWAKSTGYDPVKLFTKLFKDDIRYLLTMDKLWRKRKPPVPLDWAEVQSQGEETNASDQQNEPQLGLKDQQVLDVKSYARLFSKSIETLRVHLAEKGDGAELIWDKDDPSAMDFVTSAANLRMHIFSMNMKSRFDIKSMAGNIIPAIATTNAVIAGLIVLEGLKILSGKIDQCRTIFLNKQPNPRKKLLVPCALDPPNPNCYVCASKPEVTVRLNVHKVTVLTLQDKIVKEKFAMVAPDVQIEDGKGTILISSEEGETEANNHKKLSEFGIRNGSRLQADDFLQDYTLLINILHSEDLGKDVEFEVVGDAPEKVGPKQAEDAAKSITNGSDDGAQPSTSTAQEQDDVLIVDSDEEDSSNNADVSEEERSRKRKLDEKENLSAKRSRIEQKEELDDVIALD

[9] = biological target: T2, Ubiquitin-conjugating enzyme E2 N (Homo sapiens, UniProt P61088); format: functional;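 further: Dose-response confirmation in a TR-FRET assay detecting UBC13-driven polyubiquitin chain formation, inhibition measured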
T2 sequence (P61088 whole entry): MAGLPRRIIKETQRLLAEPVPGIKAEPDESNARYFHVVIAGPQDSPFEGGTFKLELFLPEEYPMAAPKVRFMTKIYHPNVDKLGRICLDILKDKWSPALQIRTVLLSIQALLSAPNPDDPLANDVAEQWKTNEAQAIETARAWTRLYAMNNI

[10] = biological target: T3, Heat shock factor protein 1 (Mus musculus, UniProt P38532); test: decrease of HSF1-responsive luciferase luminescence – cell-based, NIH3T3, dose retest, confirmation (AID 2382); format: functional;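 further: NIH3T3 fibroblasts with HSF1-driven luciferase reporter stressed by proteasome inhibitor MG132; luminescence from HSF1-driven luciferase expression after 8 hours of MG132 stress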
T3 sequence (P38532 whole entry): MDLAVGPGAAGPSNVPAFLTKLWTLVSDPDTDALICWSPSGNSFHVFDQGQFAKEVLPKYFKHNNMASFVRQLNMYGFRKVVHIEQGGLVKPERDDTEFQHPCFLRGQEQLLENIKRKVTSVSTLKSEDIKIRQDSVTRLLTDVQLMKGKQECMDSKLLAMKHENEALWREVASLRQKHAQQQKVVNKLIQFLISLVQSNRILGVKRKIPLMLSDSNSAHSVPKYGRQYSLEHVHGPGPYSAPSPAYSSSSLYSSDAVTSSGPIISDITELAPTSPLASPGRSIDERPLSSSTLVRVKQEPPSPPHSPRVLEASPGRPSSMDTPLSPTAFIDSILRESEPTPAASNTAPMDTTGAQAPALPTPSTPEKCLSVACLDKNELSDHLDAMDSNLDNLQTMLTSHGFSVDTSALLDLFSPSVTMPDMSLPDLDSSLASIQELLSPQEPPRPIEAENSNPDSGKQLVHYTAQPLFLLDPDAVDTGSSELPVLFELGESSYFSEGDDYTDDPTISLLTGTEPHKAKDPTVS

[11] = biological target: T4, RNA-binding protein pos-1 (Caenorhabditis elegans, UniProt G5EF15); test: disruptors of C. elegans POS-1 RNA interaction – biochemical, fluorescence polarization, dose response (AID 1964);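 further: purified POS-1 fused to maltose binding protein made in E. coli; potency of compounds blocking POS-1 binding to fluorescent RNA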
T4 sequence (G5EF15 whole entry): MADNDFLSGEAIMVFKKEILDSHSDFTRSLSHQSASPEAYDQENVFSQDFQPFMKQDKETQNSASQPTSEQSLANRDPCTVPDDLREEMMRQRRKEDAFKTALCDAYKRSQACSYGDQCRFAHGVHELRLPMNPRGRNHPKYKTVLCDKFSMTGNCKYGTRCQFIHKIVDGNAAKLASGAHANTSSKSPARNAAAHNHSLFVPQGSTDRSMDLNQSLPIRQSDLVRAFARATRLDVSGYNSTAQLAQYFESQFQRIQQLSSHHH

[12] = biological target: Aurora kinase B (Homo sapiens, UniProt Q96GD4); format: functional
Chain of Aurora kinase B (Q96GD4 whole entry): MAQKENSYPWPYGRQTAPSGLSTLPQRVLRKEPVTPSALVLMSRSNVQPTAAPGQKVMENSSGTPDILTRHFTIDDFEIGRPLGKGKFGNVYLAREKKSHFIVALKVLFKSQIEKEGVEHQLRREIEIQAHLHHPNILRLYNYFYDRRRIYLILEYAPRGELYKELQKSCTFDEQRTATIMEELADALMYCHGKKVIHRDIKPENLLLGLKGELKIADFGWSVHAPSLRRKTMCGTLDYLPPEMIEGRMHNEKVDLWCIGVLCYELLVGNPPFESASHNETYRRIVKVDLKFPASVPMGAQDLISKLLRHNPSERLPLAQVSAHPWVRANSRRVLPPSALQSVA

Chain of Serine/threonine-protein kinase N2 (Q16513 whole entry): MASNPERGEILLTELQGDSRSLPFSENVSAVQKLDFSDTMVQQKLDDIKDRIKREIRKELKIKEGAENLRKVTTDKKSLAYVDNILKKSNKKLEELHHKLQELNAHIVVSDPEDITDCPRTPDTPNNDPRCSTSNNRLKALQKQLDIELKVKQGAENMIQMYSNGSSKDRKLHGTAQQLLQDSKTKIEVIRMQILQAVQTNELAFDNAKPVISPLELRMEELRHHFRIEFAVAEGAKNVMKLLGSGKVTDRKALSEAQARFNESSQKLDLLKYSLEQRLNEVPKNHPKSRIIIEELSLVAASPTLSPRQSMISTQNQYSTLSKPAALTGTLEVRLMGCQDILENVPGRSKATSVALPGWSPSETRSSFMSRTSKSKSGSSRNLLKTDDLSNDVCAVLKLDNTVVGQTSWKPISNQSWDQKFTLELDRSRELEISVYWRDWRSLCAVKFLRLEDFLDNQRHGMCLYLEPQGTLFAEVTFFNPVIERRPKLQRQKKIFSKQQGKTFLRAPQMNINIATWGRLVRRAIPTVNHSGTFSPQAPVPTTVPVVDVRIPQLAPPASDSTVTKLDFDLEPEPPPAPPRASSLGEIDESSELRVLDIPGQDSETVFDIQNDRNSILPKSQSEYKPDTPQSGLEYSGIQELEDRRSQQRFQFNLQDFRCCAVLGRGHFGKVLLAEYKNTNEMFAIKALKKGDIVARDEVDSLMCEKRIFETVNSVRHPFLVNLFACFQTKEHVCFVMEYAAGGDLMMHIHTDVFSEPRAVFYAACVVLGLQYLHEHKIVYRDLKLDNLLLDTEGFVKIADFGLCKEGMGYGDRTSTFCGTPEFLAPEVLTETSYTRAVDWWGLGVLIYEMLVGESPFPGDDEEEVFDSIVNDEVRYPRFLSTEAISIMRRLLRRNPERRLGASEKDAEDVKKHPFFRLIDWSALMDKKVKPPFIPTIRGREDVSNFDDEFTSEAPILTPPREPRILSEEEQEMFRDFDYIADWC

Ki [1]: > 5.01 µM (inactive) | Ki [2]: > 2.51 µM (inactive)
Compound: O=C(Nc1cc(-c2c[nH]c3ncccc23)cc(Cl)n1)c1ccccc1

Compound: CCN1C(=Cc2sc3ccccc3[n+]2C)C=Cc2cccc(C)c21
AC50 [3]: 9.01 µM (active) | CC50 [4]: 13.8 µM (active)

Compound: O=C(N/N=C/c1c(O)ccc2ccccc12)c1[nH]ncc1Br
EC50 [5]: 24.6 µM (active) | IC50 [6]: 36.5 µM (active)

Compound: O=C(Cc1ccccc1Cl)NC1(O)C(=O)c2ccccc2C1=O
AC50 [7]: 7.1 µM (active) | IC50 [8]: 5.64 µM (active)

Compound: CNC[C@H](Cc1ccccc1)NC[C@@H](Cc1cccc2ccccc12)NCCc1ccc(C)cc1
IC50 [9]: 14.9 µM (active) | EC50 [10]: 18.5 µM (active)

EC50 [11]: 104 µM (active)
Compound: Nc1nnc2c(n1)CCCC2

Ki [12]: 1 µM (active)
Compound: Nc1c(-c2ccc(NC(=O)Nc3cccc(C(F)(F)F)c3)cc2)cnc2c(-c3ccc4c(c3)OCO4)cnn12
